# From patent US6596307B1, “Process for preparing pharmaceutical bulk material having uniform dissolution” (Eli Lilly and Company, priority 2001, dated 2003)
# Values joined by “and” are separate entries in the source; they are usually repeats but may differ in a detail not shown here. Equal entries are not always repeated.
# Legend:
# Assay type in all cases: physicochemical
# [1] = Model Dissolution Test (capsule filled with drug substance only); settings: no related substances added; failed the test
# Procedure: Approximately 523 mg of bulk cefaclor is filled into an empty 500 mg cefaclor capsule (KG3062). The USP monograph dissolution test is then performed with filtered samples being withdrawn at 15, 30, and 45 minutes. The test conditions are USP Apparatus 2 at 50 rpm using 900 ml of purified water maintained at 37° C. Visual examination is done at the time of sample collection. Visual observations range from “the material is completely dissolved and/or dispersed within 5 minutes with no visible residue or agglomerates to a large intact mass remains at the end of 45 minutes that is hard to the touch.” An ultraviolet (UV) assay is conducted on the filtered aliquots to determine the percent dissolution.
# [2] = Near Infrared Dihydrate Conversion Test (NIR onset time); settings: for NIR Onset Time: cefaclor dihydrate dried in fluidized bed to different water contents (Table 2)
# Excerpt: “NIR onset time” refers to the time between addition of water to a cefaclor sample and the observation of an absorption peak at about 5798 cm^−1 (1725 nm) as measured by Near-Infrared Reflectance Spectroscopy (NIRS). Depending upon the particular instrument used, the exact peak measurement may vary within the standard deviation established for that particular instrument.
# The NIRS conversion test measures the time in minutes before the onset of the crystal form reversion for a sample of cefaclor bulk. […] To ensure that a lot will have an acceptable dissolution rate, one generally strives for a NIR onset time of >7 minutes, preferably >9 minutes and more preferably >10 minutes.
# Approximately 1 to 2 grams of sample was spread in a thin layer on the bottom of an open aluminum weighing pan and placed in a constant humidity chamber, containing a saturated aqueous solution of K2HPO4, for at least two hours prior to analysis. Following equilibration in the humidity chamber, the sample was packed into a 2 mm×6 mm, stainless steel sample cup until full (approximately 35 mg), and 6 μL of water placed in the center of the sample. NIR data were collected using the NIR Systems model 5000 equipped with a fiber optic diffuse-reflectance probe, positioned over the sample cup. Immediately following addition of the water, NIR spectra were recorded from 1100 to 2500 nm approximately each 30 seconds. The time elapsed prior to the first appearance of the dihydrate peak at 1725 nm (5798 cm^−1) was reported as the NIR onset time.
# [3] = USP 23 Standard Dissolution Test for Cefaclor Capsules; design: Capsule dissolution rate, 1st stage (Avg. n = 6) / Capsule dissolution rate, 1st stage, individual unit / Capsule dissolution rate, 2nd stage, individual unit: unit: %; settings: water 37° C., 30 minutes, then rehydrated; for Capsule dissolution rate, 1st stage, individual unit: % dissolved
# Procedure: Dissolution (711): The test conditions are USP Apparatus 2 at 50 rpm using 900 ml of purified water maintained at 37° C. for 30 minutes. Determine the amount of Cefaclor monohydrate dissolved from ultraviolet absorbances at the wavelength of maximum absorbances at about 264 nm of filtered portions of the solution under test, suitably diluted with water, in comparison with a Standard solution having a know concentration of USP Cefaclor RS in the same medium.
# Dissolution testing is continued with additional units through three stages unless the results conform at either the 1st or 2nd stage according to the following acceptance
# The quantity, Q, is the % of dissolved active ingredient in the specification. For Cefaclor, at Stage 1, each individual unit must be at least 85% dissolved in 30 minutes to pass the testing. If any of the 6 units tested is less than 85% dissolved, the product fails level S1 and you must go to S2. At Stage 2, the mean of the twelve units tested (first 6 from S1 and 6 from S2) must be at least 80% dissolved and no unit may be less than 65% dissolved. If these criteria are not met, the product fails the level S2 specification and you must go to S3. At Stage 3, the mean of the 24 units tested (6 from S1+6 from S2+12 from S3) must be at least 80% dissolved, no more than 2 units may be less than 65% dissolved, and none of the units may be less than 55% dissolved.
# [4] = Solubility in water of crystal forms
# [5] = X-ray diffraction conversion rate test (monohydrate to dihydrate after addition of water); settings: added at 0.5% by weight to poorly dissolving lot, mixed dry; 1 ml water to 0.80 g sample
# Procedure: Through X-ray diffraction studies of readily dissolving and incompletely dissolving lots of cefaclor, it was determined that all lots are initially in the same crystallographic state (monohydrate). Upon addition of water to readily dissolving lots, there is no change in the X-ray powder diffraction pattern over a five minute period. In contrast, when water is added to incompletely dissolving lot of cefaclor, substantial amounts of the dihydrate form are detected in less than five minutes. In an older lot of cefaclor, no dihydrate was detected for as long as two days, at which time the study was discontinued.
# The Δ^2-isomer was added to a poorly dissolving lot of cefaclor at 0.5% concentration by weight. The sample was mixed in the dry state. After addition of 1 ml of water to a 0.80 g sample, the X-ray diffraction pattern was collected at different time intervals.
# Kinetic studies were carried out using fraction 6 to gain a better understanding of how much would be required to achieve acceptable results in the model dissolution test.
# [6] = bulk dried to 3.0 to 6.5% water (control method)
# [7] = lots dried with full desiccation dried air
# [8] = lots dried with 40 grains dried air
smiles,measurement,setting,value
N[C@@H](C(=O)N[C@@H]1C(=O)N2C(C(=O)O)=C(Cl)CS[C@H]12)c1ccccc1,dissolved in thirty minutes,[1],78%
"N[C@@H](C(=O)NC1C(=O)N2C(C(=O)O)=C(Cl)CS[C@H]12)c1ccccc1 (some centres unmarked) [Cefaclor Monohydrate (Control), reference compound]","NIR onset time, upper control limit",[2]; [6],approximately 2.5 minutes
same,average NIR onset time,[2]; [6],1.2 min
N[C@@H](C(=O)N[C@@H]1C(=O)N2C(C(=O)O)=C(Cl)CS[C@H]12)c1ccccc1.O [Sample 1-1],NIR Onset Time,[2],3 min
N[C@@H](C(=O)N[C@@H]1C(=O)N2C(C(=O)O)=C(Cl)CS[C@H]12)c1ccccc1.O [Sample 1-2],NIR Onset Time,[2],11 min
N[C@@H](C(=O)N[C@@H]1C(=O)N2C(C(=O)O)=C(Cl)CS[C@H]12)c1ccccc1.O [Sample 1-3],NIR Onset Time,[2],2.5 min
N[C@@H](C(=O)N[C@@H]1C(=O)N2C(C(=O)O)=C(Cl)CS[C@H]12)c1ccccc1 [Sample 2-1a],"Capsule dissolution rate, 1st stage, individual unit",[3]; [7],102% (2×) and 100% and 94% and 101% (2×)
same,"Capsule dissolution rate, 1st stage (Avg. n = 6)",[3]; [7],100
N[C@@H](C(=O)N[C@@H]1C(=O)N2C(C(=O)O)=C(Cl)CS[C@H]12)c1ccccc1 [Sample 2-1b],"Capsule dissolution rate, 1st stage, individual unit",[3]; [7],91 and 85 and 88 and 96 and 95 and 92
same,"Capsule dissolution rate, 1st stage (Avg. n = 6)",[3]; [7],90
N[C@@H](C(=O)N[C@@H]1C(=O)N2C(C(=O)O)=C(Cl)CS[C@H]12)c1ccccc1 [Sample 2-1c],"Capsule dissolution rate, 1st stage, individual unit",[3]; [7],90 and 95 and 97 and 89 and 96 (2×)
same,"Capsule dissolution rate, 1st stage (Avg. n = 6)",[3]; [7],94
N[C@@H](C(=O)N[C@@H]1C(=O)N2C(C(=O)O)=C(Cl)CS[C@H]12)c1ccccc1 [Sample 2-2a],"Capsule dissolution rate, 1st stage, individual unit",[3]; [8],97 and 92 and 95 and 81 and 98 and 101
same,"Capsule dissolution rate, 1st + 2nd stage (Avg. n = 12)",[3]; [8],96
same,"Capsule dissolution rate, 1st stage (Avg. n = 6)",[3]; [8],94
same,"Capsule dissolution rate, 2nd stage (Avg. n = 6)",[3]; [8],98
same,"Capsule dissolution rate, 2nd stage, individual unit",[3]; [8],98 and 95 and 99 and 100 and 97 and 96
"N[C@@H](C(=O)N[C@@H]1C(=O)N2C(C(=O)O)=C(Cl)CS[C@H]12)c1ccccc1 [amorphous cefaclor, reference compound]",effect of addition to a cefaclor bulk sample on dihydrate reversion time,[2]; indicator tests,decrease the reversion onset time
N[C@@H](C(=O)N[C@@H]1C(=O)N2C(C(=O)O)=C(Cl)CS[C@H]12)c1ccccc1 [cefaclor dihydrate],solubility in water relative to the monohydrate form,[4],less readily soluble
N[C@@H](C(=O)NC1C(=O)N2C(C(=O)O)C(Cl)=CS[C@H]12)c1ccccc1 (stereo partly drawn) [Δ^2-isomer],inhibitory effect on conversion to dihydrate,[5],minor inhibitory effect
